In PubChem BioAssay AID2305 (GlaxoSmithKline (GSK), 2010) one finds IC50 data, which are given here for 84 compounds.

Each structure is given as a SMILES string.

The subject of this assay is P. falciparum 3D7 growth, pLDH absorbance. In words: P. falciparum 3D7 growth inhibition, dose response, strain 3D7 (AID 2305).

Compound `O=[N+]([O-])c1cccc(-c2nc(-c3ccc(Br)cc3)[nH]c2-c2ccc(Br)cc2)c1` gave a half-maximal inhibitory concentration (IC50) of 760 nM. Next, `Cc1sc2cc(Cl)cc(Cl)c2c1S(=O)(=O)Nc1ccc2nccc(N3CCNCC3)c2c1`: 120 nM; `CC(C)OC(=O)c1ccc(NC(=O)N[C@@H](Cc2ccc(O)cc2)C(=O)NC2CCC(CCN3[C@@H]4CC[C@H]3c3ccccc34)CC2)cc1` (some centres undefined): 830 nM; `CNCCN(C)C(=O)Oc1c(Cl)c(C)nc(C)c1-c1ccc(Oc2ccc(OC(F)(F)F)cc2)cc1`: 130 nM.

Compound `O=C(NCCN1CCCC1)c1ccc(-c2cccc(-c3nc4ccc(F)cc4[nH]3)c2)cc1` showed a concentration for half-maximal inhibition (IC50) of 770 nM. Next, `Cc1cc2ccccc2n1CC(=O)N1CC(C(=O)N2CCCCC2)Oc2ccccc21` (centres undefined): 900 nM. Then `Cc1noc(C)c1-c1cccc(CNCc2ccc(-c3ccc(-c4nc5ccc(F)cc5[nH]4)cc3)cc2)c1`, with 210 nM; and `CC(=O)Oc1cc(C)ccc1C1CCN(CCCCNC(=O)c2ccc(-c3ccc(C(F)(F)F)cc3)cc2)CC1`, with 650 nM; and `N#Cc1ccc2c(c1)CCN(CCC1CCC(NC(=O)/C=C/c3c[nH]c4c(Br)cccc34)CC1)CC2` (centres undefined), with 380 nM. Then `CC(=O)c1ccc(NC(=O)Nc2ccc(N(C)c3ccnc(NC4CC4)n3)cc2)cc1`, with 800 nM.

The compound `CNCCNCc1ccc(-c2cccc(-c3nc4ccc(C(F)(F)F)cc4[nH]3)c2)cc1` displayed an IC50 of 630 nM. Turning to `O=C(Nc1cc(C(F)(F)F)cc(C(F)(F)F)c1)Nc1cc(C(F)(F)F)cc(C(F)(F)F)c1`, the concentration for half-maximal inhibition (IC50) came to 730 nM. Turning to `O=C(NC1CCN(Cc2ccccc2)CC1)c1ccc(-c2nc3cc(Cl)c(Cl)cc3[nH]2)c(F)c1`, the IC50 was determined as 740 nM. Next, `Cc1c[nH]c2cc(/C=C/C(=O)NC3CCC(CCN4CCc5ccc(C#N)cc5CC4)CC3)ccc12` (centres undefined): 800 nM. `CCCCCn1c(Sc2ccc(C#N)c([N+](=O)[O-])c2)nnc1-c1cccc(Cl)c1` returned an IC50 of 770 nM.

Compound `O=C(Nc1cccc(-c2cccc(-c3nc4ccc(F)cc4[nH]3)c2)c1)c1ccoc1` gave an IC50 of 330 nM. This IC50 is about 2.3-fold lower than that of the compound before.

`Cc1cn(CC(=O)Nc2cccc(-c3cccc(-c4nc5ccc(C(F)(F)F)cc5[nH]4)c3)c2)c(=O)[nH]c1=O`: the half-maximal inhibitory concentration (IC50) is 680 nM. The compound `CNC(=O)c1ccccc1Nc1nc(Nc2ccc(N3CCOCC3)cc2)ncc1Cl` gave an IC50 of 730 nM. This IC50 and that of the compound before are within 1.5-fold of each other. The compound `O=C(Nc1cccc(-c2cccc(F)c2)c1)C1CCN(Cc2ccc(O)cc2)CC1` gave a 50% inhibitory concentration (IC50) of 1730 nM. Against the preceding compound, the IC50 is about 2.4-fold higher. The compound `COc1ccc2nccc([C@@H](O)CN3CCC(NC(=O)/C=C/c4ccc(F)c5ccccc45)CC3)c2c1` yielded a half-inhibitory concentration (IC50) of 180 nM. Then `CCC[C@@H]([C@@H](CC(C)C)C(=O)N[C@@H](CCCN=C(N)NS(C)(=O)=O)C(=O)Nc1nccs1)N(O)C=O`, with 940 nM; and `COc1ccc2nc3ccccc3c(NCCN3CCN(C)CC3)c2c1`, with 1290 nM; and `CO/C(=C\C=C\c1cc2cc(Cl)c(Cl)cc2[nH]1)C(=O)NC1C[C@H]2CCC[C@@H](C1)N2C` (some centres undefined), with 1000 nM. `O=C(Nc1ccc(Br)cc1)c1cc(Br)ccc1NS(=O)(=O)c1cc(C(F)(F)F)cc(C(F)(F)F)c1` showed an IC50 of 880 nM.

Regarding `CCOC(=O)c1ccc(N2CCN(CCCNC(=O)/C(=C/C=C/c3cc4cc(Cl)c(Cl)cc4[nH]3)OC)CC2)cc1`, the IC50 was 850 nM.

Compound `CN1CCCN(Cc2cccc(-c3ccc(NC(=O)c4cccc(C#N)c4)cc3)c2)CC1` returned a half-maximal inhibitory concentration (IC50) of 720 nM. This IC50 and that of the compound before are within 1.5-fold of each other. Then `Cc1[nH]c(C)c(-c2ccc(OCc3cc(C(F)(F)F)cc(C(F)(F)F)c3)nc2)c(=O)c1Cl`, with 110 nM; and `CCN(CCCN1CCCCC1)c1cc(C)nc(Nc2ccc(C)cc2C)n1`, with 350 nM; and `Cc1ccc2nc(C)cc(NN=Cc3ccccc3F)c2c1`, with 170 nM.

On to `NC(N)=NN=CC(=O)Nc1cccc(C(F)(F)F)c1`, for which the IC50 turned out to be 1000 nM. This IC50 is about 5.9-fold higher than that of the compound before. Then `CC(CN(C)C)Oc1ccc2[nH]c(-c3cccc(OCc4ccccc4)c3)nc2c1C#N` (centres undefined), with 410 nM; and `CC(C)c1ccc(NC(=O)NC2CCN(CCCCCNC(=O)/C=C/c3ccc(Cl)c(Cl)c3)CC2)cc1`, with 670 nM.

In the case of `COc1ccc(CCNCCCCCCNCCc2ccc(Cl)cc2)c(Cl)c1OC`, the half-maximal inhibitory concentration (IC50) worked out at 830 nM. The IC50 values of the last two compounds are within 1.5-fold of each other.

As for `Fc1ccc2[nH]cc(CCNCc3ccc(-c4cccc(-c5nc6ccccc6[nH]5)c4)cc3)c2c1`, the 50% inhibitory concentration (IC50) was 170 nM. This IC50 lies about 4.9-fold lower than the previous one. Then `NC(Cc1cccc(I)c1)C(=O)NCC1CCCO1` (centres undefined), with 890 nM. With `CC(=O)Nc1nc(C(=O)Nc2cccc(-c3ccc4c(cnn4CC4CC4)c3)c2)cs1`, the IC50 came to 740 nM.

As for `COc1ccc(C(=O)COc2cccc(/C=C/C(=O)O)c2)cc1OC`, the IC50 turned out to be 1320 nM. Compound `c1ccc(Oc2ccc(Nc3ccnc4cc(-c5csc(CNCCN6CCOCC6)n5)ccc34)cc2)cc1` had a half-maximal inhibitory concentration (IC50) of 710 nM.

`CCOC(=O)c1ccc(OCCCCCCOc2ccc(Br)cc2)cc1`: the IC50 was 780 nM. This IC50 and that of the compound before are within 1.5-fold of each other. Next, `COc1cccc(C2C(C(=O)Nc3ccccc3)=C(C)N=c3s/c(=C\c4ccc(O)cc4)c(=O)n32)c1` (centres undefined): 580 nM; `N#Cc1cccc(CN2CCCN(Cc3cccc(C(=O)Nc4ccc(Cl)cc4)c3)CC2)c1`: 1180 nM; `CN(C)CCOc1ccc(-c2cc(-c3ccnc(N)n3)c(-c3ccc(Cl)c(O)c3)o2)cc1`: 980 nM. As for `CCCCCCCc1cc(=O)c2ccccc2[nH]1`, the 50% inhibitory concentration (IC50) worked out at 320 nM. Next, `COc1cc2c(cc1NS(=O)(=O)c1ccc(OCc3ccc(Br)cc3)cc1)CCN(C1CCC1)CC2`: 840 nM.

For `CN1CCN(c2ccnc3ccc(NC(=O)Nc4ccc5c(c4)CCC5=O)cc23)CC1`, the 50% inhibitory concentration (IC50) was found to be 330 nM. This IC50 is about 2.5-fold lower than that of the compound before.

In turn, `Cc1cccc2[nH]c(-c3cccc(-c4cccc(NC(=O)c5cncn5C)c4)c3)nc12` showed an IC50 of 170 nM.

As to `COc1ccc(C2CC(c3ccccc3O)=NN2C(=O)c2ccco2)cc1OC` (centres undefined), the IC50 came to 950 nM. On to `CC(C)(C)OC(=O)/C=C(\C(=O)OCc1ccc([N+](=O)[O-])cc1)c1csc(NC(c2ccccc2)(c2ccccc2)c2ccccc2)n1`, for which the half-inhibitory concentration (IC50) is 860 nM. Then `COc1ccc(NC(=O)CCNc2cc(C)nc(NCc3ccccc3C)n2)cc1`, with 1070 nM; and `CCOc1ccc(C2CCN(CCCCNC(=O)c3ccc(NC(=O)c4ccc(Cl)cc4)cc3)CC2)c(Cl)c1`, with 730 nM; and `CCOC(=O)[C@H](Cc1cccc2ccccc12)NC(=O)[C@H](CCC(=O)OC(C)(C)C)NC(=O)c1ccc(N(C)Cc2cnc3nc(N)nc(N)c3n2)cc1`, with 660 nM.

Regarding `CCOc1ccc(Nc2ccc3nonc3c2S(=O)(=O)Nc2ccc(OCC)cc2)cc1`, the IC50 came out at 510 nM. Then `O=S(=O)(c1ccc(OCc2ccc(Cl)cc2)cc1)c1cc2c(cc1OCc1ccccc1)CCN(CC1CC1)CC2`, with 1110 nM. `COc1ccc2nccc([C@@H](O)CN3CCC(NC(=O)/C=C/c4cccc(-c5ccccc5)c4)CC3)c2c1`: the half-maximal inhibitory concentration (IC50) amounted to 250 nM. Then `CCOC(=O)CN1Cc2cc(NCc3ccc4ccc5nc(C)[nH]c(=O)c5c4c3)ccc2C1=O`, with 700 nM.

For the compound `COc1ccc2nc(C)cc(Nc3ccc(Oc4ccc5ccccc5c4)c(Cl)c3)c2c1`, the IC50 stood at 690 nM. Next, `CC[C@H]1CN2CC[C@@H]1C[C@H]2[C@H](O)c1cc(N2CCOCC2)nc2ccc(OC)cc12`: 120 nM; `COc1cc(F)c2nccc([C@@H](O)CN3CCC(NCc4nc5c(F)cccc5[nH]4)CC3)c2c1`: 850 nM. The compound `CCN(CCCN1CCCCC1)c1cc(C)nc(Nc2ccc(Cl)c(C(F)(F)F)c2)n1` had an IC50 of 170 nM.

Take `Clc1ccccc1CN1CCC(NCc2cccc(-n3ccnc3)c2)CC1`: the IC50 worked out at 790 nM. Take `COCCn1c(Sc2ncnc3sccc23)nc2ccccc21`: the IC50 worked out at 880 nM. This IC50 and that of the compound before are within 1.5-fold of each other.

Take `CCN(CC)CCCNc1ncc2c(-c3ccc(NC(=O)Nc4cc(C(F)(F)F)ccc4F)cc3)nn(C)c2n1`: the IC50 worked out at 220 nM. Compared with the last compound, the IC50 is about 4-fold lower. Next, `C=C(C)Cn1cc(C2CCN(CCN3CCC(CNC(=O)c4ccc(-c5ccc(C#N)cc5)cc4)CC3)CC2)c2ccccc21`: 430 nM; `Cc1cc(NN=Cc2cccc(Cl)c2)c2cc(F)ccc2n1`: 760 nM; `c1cc(CNCCc2ccncc2)cc(-c2cccc(-c3nc4ccccc4[nH]3)c2)c1`: 150 nM. Compound `Cn1nc(-c2ccc(CN[C@@H]3CCc4ccc(O)cc43)cc2)c2cnc(NCCCN3CCCC3)nc21` yielded a half-inhibitory concentration (IC50) of 800 nM. Turning to `O=C(NCc1cccc2ccccc12)[C@@H]1CCCN1C(=O)c1ccc(O)c(-c2ccc(Cl)c(Cl)c2)c1`, the IC50 came to 950 nM. `O=C1C2=C(Nc3ccccc3SC2c2ccccc2)c2ccccc21` (centres undefined): the IC50 came out at 330 nM. This IC50 lies about 2.9-fold lower than the previous one. Then `Cc1cc2nc(-c3ccc(C(=O)NCc4ccc(C(C)(C)C)cc4)cc3)[nH]c2cc1C`, with 770 nM; and `Cc1cccc2[nH]c(-c3cccc(-c4cccc(NC(=O)Nc5ccccc5)c4)c3)nc12`, with 140 nM; and `NC(N)=NN=CC(=O)Nc1ccc(C(F)(F)F)cc1`, with 930 nM. Turning to `Cc1cccc2[nH]c(-c3cccc(-c4cccc(CNCCc5ccncc5)c4)c3)nc12`, the half-inhibitory concentration (IC50) stood at 140 nM. This IC50 lies about 6.6-fold lower than the previous one. In the case of `CC(=O)NCCCCC1NC2(C(=O)N(Cc3ccc(C(C)(C)C)cc3)c3ccccc32)C2C(=O)N(C3CCCCC3)C(=O)C12` (centres undefined), the IC50 was found to be 790 nM. Compound `O=c1cc(NCCC2CC=CCN2Cc2ccc(Cl)c(Cl)c2)[nH]c2ccccc12` (centres undefined) displayed an IC50 of 1730 nM. Compound `COc1ccccc1N=C1SC(=Cc2cn(CC(=O)N3CCCc4ccccc43)c3ccccc23)C(=O)N1C1CCCCC1` returned an IC50 of 30 nM. `CN1c2ccc([N+](=O)[O-])cc2C(C)(C)C12C=Cc1cc(Br)cc([N+](=O)[O-])c1O2` (centres undefined) displayed an IC50 of 780 nM. Next, `Cc1cc(Nc2ccc3c(c2)CCC3)n2ncnc2n1`: 970 nM; `Clc1ccc(Nc2nc(-c3ccccn3)cs2)nc1`: 770 nM; `N=C(N)c1ccc(Nc2nccc(Nc3nc(-c4ccccc4)cs3)n2)cc1`: 750 nM. On to `COc1ccc(N2C(=O)C3C(C2=O)C2(C)c4ccccc4C3(C)c3ccccc32)c([N+](=O)[O-])c1` (centres undefined), for which the concentration for half-maximal inhibition (IC50) was determined as 720 nM. Next, `O=C(/C=C/c1ccc(C(F)(F)F)cc1)NCCCCCN1CCCN(C(=O)Nc2ccc(Cl)c(Cl)c2)CC1`: 420 nM; `O=C(Nc1cc(Cl)cc(Cl)c1)Nc1ccccc1C(=O)NC1CCCCC1`: 750 nM; `CCCCCCCCCN1CC[C@@H](CCCc2ccnc3ccc(O)cc23)[C@@H](CC)C1`: 290 nM.

As for `CSc1ccc2ccccc2c1CNCCCCCCNCc1c(SC)ccc2ccccc12`, the half-maximal inhibitory concentration (IC50) was found to be 800 nM.

One may read the IC50 as the concentration at which inhibition is half-maximal.
